How the values were obtained:
Experiment in all cases: relative viability (nuclei count vs DMSO), 5 days (fraction); higher = more cells survive
17-AAG + Dasatinib = compound: C=CCNC1=C2C[C@@H](C)C[C@H](OC)[C@H](O)[C@@H](C)/C=C(\C)[C@H](OC(N)=O)[C@@H](OC)/C=C\C=C(/C)C(=O)NC(=CC1=O)C2=O [17-AAG] + Cc1nc(Nc2ncc(C(=O)Nc3c(C)cccc3Cl)s2)cc(N2CCN(CCO)CC2)n1 [Dasatinib] (partner 0.075 µM)
Outline: (§1)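 After 5 days of treatment, lung cancer cells in 1536-well plates were fixed and stained in a single step (final 0.05% Triton X-100, 1% formaldehyde, 1 ug/ml Hoechst) and their nuclei counted on 4× images. Treatment had been applied by pin tool the day after seeding as one drug alone or as a fixed anchor-drug dose with five library-drug doses (not always all listed) in √10 steps. Relative viability is the nuclei count of treated wells divided by that of vehicle wells, and values are medians of duplicate plates.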

17-AAG + Bortezomib = compound: C=CCNC1=C2C[C@@H](C)C[C@H](OC)[C@H](O)[C@@H](C)/C=C(\C)[C@H](OC(N)=O)[C@@H](OC)/C=C\C=C(/C)C(=O)NC(=CC1=O)C2=O [17-AAG] + CC(C)C[C@H](NC(=O)[C@H](Cc1ccccc1)NC(=O)c1cnccn1)B(O)O [Bortezomib] (partner 0.002 µM)
Outline: as §1

17-AAG + Navitoclax = compound: C=CCNC1=C2C[C@@H](C)C[C@H](OC)[C@H](O)[C@@H](C)/C=C(\C)[C@H](OC(N)=O)[C@@H](OC)/C=C\C=C(/C)C(=O)NC(=CC1=O)C2=O [17-AAG] + CC1(C)CCC(c2ccc(Cl)cc2)=C(CN2CCN(c3ccc(C(=O)NS(=O)(=O)c4ccc(N[C@H](CCN5CCOCC5)CSc5ccccc5)c(S(=O)(=O)C(F)(F)F)c4)cc3)CC2)C1 [Navitoclax] (partner 0.5 µM)
Outline: as §1

17-AAG + Luminespib = compound: C=CCNC1=C2C[C@@H](C)C[C@H](OC)[C@H](O)[C@@H](C)/C=C(\C)[C@H](OC(N)=O)[C@@H](OC)/C=C\C=C(/C)C(=O)NC(=CC1=O)C2=O [17-AAG] + CCNC(=O)c1noc(-c2cc(C(C)C)c(O)cc2O)c1-c1ccc(CN2CCOCC2)cc1 [Luminespib] (partner 0.01 µM)
Outline: as §1

Cell Line | relative viability (17-AAG + Dasatinib; first compound 0.00128 µM) | relative viability (17-AAG + Dasatinib; first compound 0.004048 µM) | relative viability (17-AAG + Dasatinib; first compound 0.0128 µM) | relative viability (17-AAG + Dasatinib; first compound 0.04048 µM) | relative viability (17-AAG + Dasatinib; first compound 0.128 µM) | relative viability (17-AAG + Bortezomib; first compound 0.00128 µM) | relative viability (17-AAG + Bortezomib; first compound 0.004048 µM) | relative viability (17-AAG + Bortezomib; first compound 0.0128 µM) | relative viability (17-AAG + Bortezomib; first compound 0.04048 µM) | relative viability (17-AAG + Bortezomib; first compound 0.128 µM) | relative viability (17-AAG + Navitoclax; first compound 0.00128 µM) | relative viability (17-AAG + Navitoclax; first compound 0.004048 µM) | relative viability (17-AAG + Navitoclax; first compound 0.0128 µM) | relative viability (17-AAG + Navitoclax; first compound 0.04048 µM) | relative viability (17-AAG + Navitoclax; first compound 0.128 µM) | relative viability (17-AAG + Luminespib; first compound 0.00128 µM) | relative viability (17-AAG + Luminespib; first compound 0.004048 µM) | relative viability (17-AAG + Luminespib; first compound 0.0128 µM) | relative viability (17-AAG + Luminespib; first compound 0.04048 µM) | relative viability (17-AAG + Luminespib; first compound 0.128 µM)
201T | 0.551 | 0.618 | 0.438 | 0.352 | 0.262 | 1.14 | 1.12 | 1.03 | 1.05 | 0.649 | 1.21 | 1.21 | 1.17 | 1.16 | 0.973 | 1.06 | 1.03 | 0.96 | 0.913 | 0.431
A-427 | 0.698 | 0.709 | 0.692 | 0.538 | 0.156 | 1.01 | 1.05 | 0.965 | 0.921 | 0.625 | 0.95 | 0.946 | 0.891 | 0.991 | 0.986 | 0.994 | 0.902 | 0.66 | 0.379 | 0.183
ABC-1 | 0.607 | 0.666 | 0.633 | 0.514 | 0.392 | 0.356 | 0.348 | 0.355 | 0.287 | 0.246 |  |  |  |  |  | 0.439 | 0.758 | 0.565 | 0.38 | 0.238
BEN | 0.354 | 0.376 | 0.469 | 0.298 | 0.232 | 0.917 | 1.14 | 0.997 | 0.64 | 0.232 | 0.069 | 0.0609 | 0.0634 | 0.052 | 0.0666 | 0.33 | 0.408 | 0.206 | 0.241 | 0.194
CAL-12T | 0.475 | 0.396 | 0.456 | 0.326 | 0.0959 | 1.11 | 0.899 | 0.904 | 0.726 | 0.469 | 1.25 | 1.17 | 1.21 | 0.799 | 0.296 | 0.33 | 0.331 | 0.175 | 0.14 | 0.113
COR-L23 | 0.58 | 0.451 | 0.504 | 0.313 | 0.0763 | 1.12 | 0.948 | 0.946 | 0.408 | 0.0841 | 1.07 | 1.06 | 0.991 | 0.544 | 0.0992 | 0.648 | 0.504 | 0.46 | 0.11 | 0.0893
COR-L 105 | 0.388 | 0.306 | 0.356 | 0.202 | 0.263 | 0.548 | 0.729 | 0.746 | 0.581 | 0.507 | 0.936 | 0.756 | 0.721 | 0.604 | 0.486 | 0.858 | 0.708 | 0.671 | 0.432 | 0.224
Calu-6 |  |  |  |  |  | 1.06 | 0.92 | 0.896 | 0.317 | 0.183 | 0.783 | 0.735 | 0.703 | 0.197 | 0.122 |  |  |  |  | 
ChaGo-K-1 | 0.507 | 0.636 | 0.464 | 0.335 | 0.186 | 1.01 | 0.971 | 0.981 | 0.304 | 0.297 | 0.949 | 1.11 | 0.897 | 0.441 | 0.273 | 0.577 | 0.627 | 0.442 | 0.199 | 0.181
EBC-1 |  |  |  |  |  | 0.536 | 0.252 | 0.185 | 0.203 | 0.165 | 0.514 | 0.203 | 0.157 | 0.182 | 0.126 |  |  |  |  | 
EKVX | 0.414 | 0.542 | 0.472 | 0.343 | 0.229 | 1.06 | 0.971 | 0.994 | 0.421 | 0.149 | 0.997 | 0.937 | 0.934 | 0.242 | 0.165 | 0.879 | 0.857 | 0.742 | 0.187 | 0.13
EMC-BAC-2 | 0.365 | 0.411 | 0.28 | 0.258 | 0.169 | 1.15 | 1.11 | 1.13 | 1.01 | 0.209 | 1.23 | 1.07 | 1.18 | 1.11 | 0.443 | 1.14 | 1.06 | 0.565 | 0.268 | 0.248
EPLC-272H | 0.436 | 0.387 | 0.205 | 0.0643 | 0.0761 | 0.89 | 0.821 | 0.97 | 0.855 | 0.171 | 1.11 | 1.21 | 1.02 | 1.06 | 0.225 | 0.191 | 0.231 | 0.201 | 0.173 | 0.0978
H3255 | 0.427 | 0.345 | 0.374 | 0.204 | 0.207 | 0.864 | 0.722 | 0.46 | 0.237 | 0.205 | 0.489 | 0.66 | 0.547 | 0.0858 | 0.107 | 0.716 | 0.872 | 0.536 | 0.203 | 0.208
HARA | 0.234 | 0.278 | 0.261 | 0.284 | 0.141 | 1.08 | 1.11 | 1.14 | 1.14 | 0.187 | 1.16 | 1.21 | 1.15 | 1.12 | 1.14 | 0.831 | 0.544 | 0.757 | 0.525 | 0.207
HCC-15 | 0.617 | 0.434 | 0.0928 | 0.0907 | 0.0837 | 1.01 | 0.816 | 0.502 | 0.542 | 0.127 | 0.767 | 0.57 | 0.434 | 0.469 | 0.144 | 0.301 | 0.23 | 0.131 | 0.128 | 0.102
